Test results: patent US20080269202A1, “Novel 2,3-benzodiazepine derivatives and their use as antipsychotic agents” (Teva Pharmaceutical Industries Ltd., priority 2007, published 2008)
Counter-ions that a name gives are not always drawn.

Compound	melting point
CCOc1cc2c(cc1OCC)C(c1ccc([N+](=O)[O-])cc1)=NN(c1ncon1)C(C)C2 (centres unmarked) [Example 52]	158 to 162 °C
CCNC(=O)N1N=C(c2ccc([N+](=O)[O-])cc2)c2cc(OC)c(OC)cc2CC1C (centres unmarked) [79]	186 to 189 °C
CNC(=O)Nc1ccc(C2=NN(c3nncs3)C(C)Cc3cc(OC)c(OC)cc32)cc1 (centres unmarked) [Example 191]	160 to 162 °C
COc1cc2c(cc1OC)C(c1ccc(N)cc1)=NN(C(=O)N1CCCCC1)C(C)C2 (racemic) [Example 178]	129 to 132 °C
COc1cc2c(cc1OC)C(c1ccc(N)cc1)=NN(c1ncnn1C)C(C)C2 (racemic) [Example 164]	160 to 162 °C
COc1cc2c(cc1OC)C(c1ccccc1)=NN(C1=NOCS1)C(C)C2 (centres unmarked) [Example 37]	170 to 173 °C
COc1cc2c(cc1OC)C(c1ccc(N)c(C)c1)=NN(C(=O)NC1CC1)[C@H](C)C2	112 to 114 °C
COc1cc2c(cc1OC)C(c1ccc(N)cc1)=NN(c1ncn(C)n1)C(C)C2 (racemic) [Example 165]	203 to 205 °C
COc1cc2c(cc1OC)C(c1ccc(N)cc1)=NN(C1=NCCO1)C(C)C2 (racemic) [Example 153]	135 to 137 °C
COc1cc2c(cc1OC)C(c1ccc(N)cc1)=NN(c1ncc(C)o1)C(C)C2 (racemic) [Example 161]	103 to 107 °C
COc1cc2c(cc1OC)C(c1ccc(N)cc1)=NN(c1nnco1)C(C)C2 (racemic) [Example 150]	100 to 105 °C
COc1cc2c(cc1OC)C(c1ccc(N)cc1)=NN(C(=O)N(C)C)[C@H](C)C2	258 to 260 °C
COc1cc2c(cc1OC)C(c1ccc(N)cc1)=NN(C(=O)NC1CC1)[C@H](C)C2	116 to 119 °C
COc1cc2c(cc1OC)C(c1ccc([N+](=O)[O-])c(Cl)c1)=NN(c1nccs1)C(C)C2 (centres unmarked) [Example 5]	168 to 169 °C
COc1cc2c(cc1OC)C(c1ccc(N)c(C)c1)=NN(C(=O)NC(C)C)[C@H](C)C2	115 to 117 °C
CCOc1cc2c(cc1OCC)C(c1ccc(N)cc1)=NN(c1nncs1)C(C)C2 (racemic) [Example 149]	108 to 113 °C
CNC(=O)N1N=C(c2ccc(N)cc2)c2cc(OC)c(OC)cc2C[C@@H]1C	130 to 134 °C
CNC(=O)N1N=C(c2ccccc2N)c2cc(OC)c(OC)cc2CC1C (racemic)	88 to 91 °C
COc1cc2c(cc1OC)C(c1ccc(NC(C)=O)c(C)c1)=NN(c1nccs1)[C@H](C)C2 [Example 185]	229 to 231 °C
COc1cc2c(cc1OC)C(c1ccc(F)cc1)=NN(c1ncon1)C(C)C2 (centres unmarked) [Example 50]	217 to 220 °C
COc1cc2c(cc1OC)C(c1ccc(N)c(C)c1)=NN(c1nccs1)C(C)C2 (racemic) [Example 140]	109 to 113 °C
COc1cc2c(cc1OC)C(c1ccc(N)cc1)=NN(c1nc(=O)n(C)s1)C(C)C2 (racemic) [Example 152]	260 to 262 °C
COc1cc2c(cc1OC)C(c1ccc(N)cc1)=NN(c1ncc(C)s1)C(C)C2 (racemic) [Example 138]	120 to 122 °C
CONC(=O)N1N=C(c2ccc(N)cc2)c2cc(OC)c(OC)cc2CC1C (racemic) [Example 179]	173 to 174 °C
CNC(=O)N1N=C(c2ccc(N)c(C)c2)c2cc(OC)c(OC)cc2CC1C (racemic)	119 to 122 °C

Compound	melting point
COc1cc2c(cc1OC)C(c1ccc(N)c(C)c1)=NN(c1nccs1)[C@H](C)C2 [Example 114]	116 to 118 °C
COc1cc2c(cc1OC)C(c1ccc(N)c(Cl)c1)=NN(c1nncs1)[C@H](C)C2 [Example 111]	129 to 134 °C
CNC(=O)N1N=C(c2ccc(F)cc2)c2cc(OC)c(OC)cc2CC1C (centres unmarked)	80 to 83 °C
COc1cc2c(cc1OC)C(c1ccc(NC(C)=O)cc1)=NN(c1nccs1)C(C)C2 (centres unmarked) [Example 181]	130 to 134 °C
COc1cc2c(cc1OC)C(c1ccc(N)c(Cl)c1)=NN(C1=NCCS1)[C@H](C)C2 [Example 116]	232 to 234 °C
COc1cc2c(cc1OC)C(c1ccc([N+](=O)[O-])cc1)=NN(c1nnc(C)o1)C(C)C2 (centres unmarked) [Example 30]	177 to 178 °C
CNC(=S)N1N=C(c2ccc(N)cc2)c2cc(OC)c(OC)cc2CC1C (racemic)	235 to 237 °C
CCCNC(=O)N1N=C(c2ccc(N)c(C)c2)c2cc(OC)c(OC)cc2C[C@H]1C	92 to 95 °C
COc1cc2c(cc1OC)C(c1ccccc1)=NN(c1ncon1)C(C)C2 (centres unmarked) [Example 51]	215 to 216 °C
COc1cc2c(cc1OC)C(c1ccc(N)c(C)c1)=NN(c1ncon1)[C@@H](C)C2 [Example 105]	136 to 138 °C
COc1cc2c(cc1OC)C(c1ccc(Cl)cc1)=NN(c1nncs1)C(C)C2 (centres unmarked) [Example 24]	203 to 204 °C
COc1cc2c(cc1OC)C(c1ccc([N+](=O)[O-])c(Cl)c1)=NN(c1ncon1)C(C)C2 (centres unmarked) [Example 46]	206 to 208 °C
CNC(=O)N1N=C(c2cc(C)c(N)c(C)c2)c2cc(OC)c(OC)cc2C[C@H]1C	110 to 113 °C
COc1cc2c(cc1OC)C(c1ccc([N+](=O)[O-])c(Cl)c1)=NN(c1ncon1)C(C)C2 (centres unmarked) [Example 45]	227 to 230 °C
CNC(=O)N1N=C(c2ccc(Cl)cc2)c2cc(OC)c(OC)cc2CC1C (centres unmarked)	164 to 166 °C
COc1cc2c(cc1OC)C(c1ccc(N)cc1)=NN(c1nccs1)C(C)C2 (racemic) [Example 136]	119 to 122 °C
COc1cc2c(cc1OC)C(c1ccc(N)cc1)=NN(C(=O)NC1CC1)C(C)C2 (racemic)	120 to 123 °C
COc1cc2c(cc1OC)C(c1ccc(N)cc1)=NN(c1nc(C)nn1C)C(C)C2 (racemic) [Example 167]	113 to 115 °C
CCCNC(=O)N1N=C(c2ccc(N)cc2)c2cc(OC)c(OC)cc2C[C@H]1C	101 to 104 °C
COc1cc2c(cc1OC)C(c1ccc([N+](=O)[O-])c(C)c1)=NN(C1=NOCS1)C(C)C2 (centres unmarked) [Example 35]	180 to 182 °C
CNC(=O)N1N=C(c2cccc(N)c2)c2cc(OC)c(OC)cc2CC1C (racemic)	103 to 108 °C
CCNC(=O)N1N=C(c2ccc([N+](=O)[O-])c(C)c2)c2cc(OC)c(OC)cc2CC1C (centres unmarked) [Example 80]	149 to 150 °C
COc1cc2c(cc1OC)C(c1cccc(Cl)c1)=NN(c1nc(C)c(C)s1)C(C)C2 (centres unmarked) (as salt: HCl) [Example 11]	174 to 176 °C
COc1cc2c(cc1OC)C(c1ccc(N)cc1)=NN(c1nc(C)c(C)s1)C(C)C2 (racemic) [Example 139]	121 to 124 °C
COc1ccc(C2=NN(c3ncon3)C(C)Cc3cc(OC)c(OC)cc32)cc1OC (centres unmarked) [Example 53]	188 to 189 °C

Compound	melting point
COc1cc2c(cc1OC)C(c1ccc(N)c(Cl)c1)=NN(c1nccs1)[C@H](C)C2 [Example 115]	116 to 117 °C
CCNC(=O)N1N=C(c2ccc(N)cc2)c2cc(OC)c(OC)cc2CC1C (racemic)	169 to 170 °C
COc1cc2c(cc1OC)C(c1ccc(N)cc1)=NN(c1ncn[nH]1)C(C)C2 (racemic) [Example 162]	152 to 155 °C
CNC(=O)N1N=C(c2ccc(N)cc2)c2cc(OC)c(OC)cc2CC1C (racemic)	105 to 107 °C
COc1cc2c(cc1OC)C(c1ccc([N+](=O)[O-])cc1)=NN(c1nc(C)c(C)s1)C(C)C2 (centres unmarked) [Example 9]	190 to 192 °C
COc1cc2c(cc1OC)C(c1ccc([N+](=O)[O-])c(Cl)c1)=NN(c1nncs1)C(C)C2 (centres unmarked) [Example 21]	214 to 215 °C
COc1cc2c(cc1OC)C(c1ccc(N)cc1)=NN(C1=NOCS1)[C@@H](C)C2 [Example 119]	134 to 135 °C
COc1cc2c(cc1OC)C(c1ccc(N)cc1)=NN(c1nncs1)[C@H](C)C2 [Example 108]	159 to 160 °C
COc1cc2c(cc1OC)C(c1cccc(Cl)c1)=NN(c1nncs1)C(C)C2 (centres unmarked) [Example 23]	86 to 88 °C
CCOc1cc2c(cc1OCC)C(c1ccc(N)cc1)=NN(c1ncon1)C(C)C2 (racemic) [Example 159]	158 to 162 °C
COc1cc2c(cc1OC)C(c1ccc(N)cc1)=NN(C1=NCCS1)C(C)C2 (racemic) [Example 141]	121 to 123 °C
COc1cc2c(cc1OC)C(c1ccc(N)c(Cl)c1)=NN(c1ncon1)C(C)C2 (racemic) [Example 158]	232 to 235 °C
CNC(=O)N1N=C(c2ccc([N+](=O)[O-])c(Cl)c2)c2cc(OC)c(OC)cc2CC1C (centres unmarked) [76]	195 to 197 °C
COc1cc2c(cc1OC)C(c1ccc([N+](=O)[O-])cc1)=NN(c1nccs1)C(C)C2 (centres unmarked) [Example 2]	151 to 152 °C
COc1cc2c(cc1OC)C(c1ccc(N)cc1)=NN(c1nc(C)c(C)s1)[C@H](C)C2 [Example 113]	122 to 124 °C
COc1cc2c(cc1OC)C(c1ccc(Cl)cc1)=NN(c1ncon1)C(C)C2 (centres unmarked) [Example 49]	210 to 212 °C
COc1cc2c(cc1OC)C(c1ccc(N)cc1)=NN(C1=NNC(=O)CS1)C(C)C2 (racemic) [Example 154]	159 to 163 °C
COc1cc2c(cc1OC)C(c1ccc(N)c(C)c1)=NN(C1=NOCS1)[C@H](C)C2 [Example 118]	194 to 197 °C
CCOc1cc2c(cc1OCC)C(c1ccc([N+](=O)[O-])cc1)=NN(c1nncs1)C(C)C2 (centres unmarked) [Example 26]	172 to 174 °C
COc1cc2c(cc1OC)C(c1ccc(N)cc1)=NN(c1noc(C)n1)C(C)C2 (racemic) [Example 156]	233 to 236 °C
COc1cc2c(cc1OC)C(c1cccc(Cl)c1)=NN(c1nccs1)C(C)C2 (centres unmarked) [Example 10]	125 to 126 °C
COc1cc2c(cc1OC)C(c1ccc(N)cc1)=NN(c1ncon1)[C@H](C)C2 [Example 103]	239 to 242 °C
COc1cc2c(cc1OC)C(c1ccc(N)cc1)=NN(c1nncs1)C(C)C2 (racemic) [Example 144]	152 to 153 °C
COc1cc2c(cc1OC)C(c1ccc(NC(C)=O)cc1)=NN(c1nc(C)c(C)s1)[C@H](C)C2 [Example 184]	238 to 239 °C
